Experiments:
COX-2 = biological target: T1, COX-2 (Homo sapiens, UniProt P35354); assay: In vitro COX-2 inhibition, colorimetric screening assay kit; conditions: for (SI) in vitro COX-2 selectivity index: COX-1 IC50/COX-2 IC50; for HillSlope (best-fit value), COX-2 inhibition / LogIC50 (best-fit value), COX-2 inhibition: supplementary dose-response curve
T1 sequence (P35354 18-604): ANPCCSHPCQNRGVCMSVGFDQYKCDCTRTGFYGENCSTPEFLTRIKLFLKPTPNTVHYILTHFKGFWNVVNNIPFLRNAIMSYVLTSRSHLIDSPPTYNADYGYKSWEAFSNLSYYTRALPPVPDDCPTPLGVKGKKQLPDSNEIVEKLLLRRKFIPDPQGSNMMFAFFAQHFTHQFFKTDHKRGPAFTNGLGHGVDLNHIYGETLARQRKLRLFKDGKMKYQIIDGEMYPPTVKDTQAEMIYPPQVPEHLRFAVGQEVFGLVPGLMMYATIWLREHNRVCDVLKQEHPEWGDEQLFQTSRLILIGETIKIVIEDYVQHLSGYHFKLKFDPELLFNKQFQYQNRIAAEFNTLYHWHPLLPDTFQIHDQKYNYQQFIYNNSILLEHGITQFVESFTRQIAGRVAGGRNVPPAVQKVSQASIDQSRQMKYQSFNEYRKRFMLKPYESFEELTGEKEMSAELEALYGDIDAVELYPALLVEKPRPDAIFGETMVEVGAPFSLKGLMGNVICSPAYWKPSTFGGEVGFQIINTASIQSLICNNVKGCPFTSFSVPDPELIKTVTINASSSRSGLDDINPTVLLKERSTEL
Experimental: (§1) This assay examined the inhibitory potency of the target structures towardboth COX isoforms via colorimetric screening assay kit (Cayman Chemical, MI, United States) based on the directions provided by the manufacturer. ELISA reader Thermo Scientific Multiskan® EX (Thermo scientific, United States) was used. […] Serial dilutions of CLX, as a reference standard, and tested compounds at concentrations of 1000, 300, 100, 30, 10, 3, 1, and 0.30 nM were used in the assay. IC50 of the tested compounds were determined using three different experiments. The selectivity (SI) of each ompound was measured using the COX-2/COX-1 ratio, which compares the IC50 of COX-2 and COX-1.

COX-1 = biological target: T2, COX-1 (Ovis aries, UniProt P05979); assay: In vitro COX-1 inhibition, colorimetric screening assay kit; conditions: for HillSlope (best-fit value), COX-1 inhibition / LogIC50 (best-fit value), COX-1 inhibition: supplementary dose-response curve
T2 sequence (P05979 25-600): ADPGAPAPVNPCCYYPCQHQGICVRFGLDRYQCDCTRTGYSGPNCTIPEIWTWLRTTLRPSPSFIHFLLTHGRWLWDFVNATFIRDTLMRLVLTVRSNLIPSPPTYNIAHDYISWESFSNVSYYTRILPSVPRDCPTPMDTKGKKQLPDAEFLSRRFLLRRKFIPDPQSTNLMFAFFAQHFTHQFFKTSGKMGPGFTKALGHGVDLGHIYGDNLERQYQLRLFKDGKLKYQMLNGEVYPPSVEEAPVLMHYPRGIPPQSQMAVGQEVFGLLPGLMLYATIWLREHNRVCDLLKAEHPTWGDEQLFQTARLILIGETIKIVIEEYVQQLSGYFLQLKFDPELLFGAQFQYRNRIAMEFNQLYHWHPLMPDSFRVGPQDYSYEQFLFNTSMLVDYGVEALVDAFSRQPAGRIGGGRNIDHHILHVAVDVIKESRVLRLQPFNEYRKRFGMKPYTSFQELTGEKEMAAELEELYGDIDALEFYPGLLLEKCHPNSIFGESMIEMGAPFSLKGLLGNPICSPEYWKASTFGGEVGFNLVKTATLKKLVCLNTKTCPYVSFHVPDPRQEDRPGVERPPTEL
Experimental: as §1

IC50 (COX-2) [nM]	(SI) in vitro COX-2 selectivity index (COX-2)	HillSlope (best-fit value), COX-2 inhibition (COX-2)	LogIC50 (best-fit value), COX-2 inhibition (COX-2)	IC50 (COX-1) [nM]	HillSlope (best-fit value), COX-1 inhibition (COX-1)	LogIC50 (best-fit value), COX-1 inhibition (COX-1)	melting point [°C]	SMILES
169 ± 2.34	0.63	-0.3273	2.228 Log (nM)	106 ± 2.16	-0.3655	2.025 Log (nM)	248 to 250	Cc1c(NC(=O)CSc2nnc(NC(=O)Nc3ccc(Cl)cc3)s2)c(=O)n(-c2ccccc2)n1C [6d, 2-((5–(3-(4-Chlorophenyl)ureido)-1,3,4-thiadiazol-2-yl)thio)-N-(1,5-dimethyl-3-oxo-2-phenyl-2,3-dihydro-1H-pyrazol-4-yl)acetamide]
130 ± 2.1	1.26	-0.3953	2.113 Log (nM)	164 ± 2.39	-0.2705	2.214 Log (nM)	243 to 245	Cc1c(NC(=O)CSc2nc(-c3ccc(Br)cc3)c(C#N)c(=O)[nH]2)c(=O)n(-c2ccccc2)n1C [8c, 2-((4–(4-Bromophenyl)-5-cyano-6-oxo-1,6-dihydropyrimidin-2-yl)thio)-N-(1,5-dimethyl-3-oxo-2-phenyl-2,3-dihydro-1H-pyrazol-4-yl)acetamide]
120 ± 2.06	1.74	-0.3650	2.079 Log (nM)	209 ± 2.21	-0.3071	2.320 Log (nM)	239 to 241	Cc1c(NC(=O)CSc2nc(-c3ccc(Cl)cc3)c(C#N)c(=O)[nH]2)c(=O)n(-c2ccccc2)n1C [8b, 2-((4–(4-Chlorophenyl)-5-cyano-6-oxo-1,6-dihydropyrimidin-2-yl)thio)-N-(1,5-dimethyl-3-oxo-2-phenyl-2,3-dihydro-1H-pyrazol-4-yl)acetamide]
86.1 ± 2.26	3.28	-0.3558	1.935 Log (nM)	282.1 ± 2.34	-0.2958	2.450 Log (nM)	250 to 252	COc1ccc(NC(=O)Nc2nnc(SCC(=O)Nc3c(C)n(C)n(-c4ccccc4)c3=O)s2)cc1 [6c, N-(1,5-Dimethyl-3-oxo-2-phenyl-2,3-dihydro-1H-pyrazol-4-yl)-2-((5–(3-(4-methoxyphenyl)ureido)-1,3,4-thiadiazol-2-yl)thio)acetamide]

More lines, now with the values behind:

SMILES	IC50 (COX-2) [nM]	(SI) in vitro COX-2 selectivity index (COX-2)	HillSlope (best-fit value), COX-2 inhibition (COX-2)	LogIC50 (best-fit value), COX-2 inhibition (COX-2)	IC50 (COX-1) [nM]	HillSlope (best-fit value), COX-1 inhibition (COX-1)	LogIC50 (best-fit value), COX-1 inhibition (COX-1)	melting point [°C]
Cc1c(NC(=O)CSc2nnc(-c3ccc([N+](=O)[O-])cc3)o2)c(=O)n(-c2ccccc2)n1C [4d, N-(1,5-Dimethyl-3-oxo-2-phenyl-2,3-dihydro-1H-pyrazol-4-yl)-2-((5–(4-nitrophenyl)-1,3,4-oxadiazol-2-yl)thio)acetamide]	65.5 ± 2.23	0.77	-0.3340	1.817 Log (nM)	50.8 ± 2.18	-0.3754	1.705 Log (nM)	214 to 216
COc1ccc(-c2nc(SCC(=O)Nc3c(C)n(C)n(-c4ccccc4)c3=O)[nH]c(=O)c2C#N)cc1 [8d, 2-((5-Cyano-4–(4-methoxyphenyl)-6-oxo-1,6-dihydropyrimidin-2-yl)thio)-N-(1,5-dimethyl-3-oxo-2-phenyl-2,3-dihydro-1H-pyrazol-4-yl)acetamide]	68.7 ± 2.19	1.33	-0.3543	1.837 Log (nM)	91.6 ± 2.15	-0.3099	1.962 Log (nM)	166 to 168
Cc1c(NC(=O)CSc2nnc(NC(=O)Nc3ccccc3)s2)c(=O)n(-c2ccccc2)n1C [6a, N-(1,5-Dimethyl-3-oxo-2-phenyl-2,3-dihydro-1H-pyrazol-4-yl)-2-((5–(3-phenylureido)-1,3,4-thiadiazol-2-yl)thio)acetamide]	155 ± 2.07	0.85	-0.3826	2.190 Log (nM)	132 ± 2.36	-0.3215	2.119 Log (nM)	254 to 256
Cc1ccc(NC(=O)Nc2nnc(SCC(=O)Nc3c(C)n(C)n(-c4ccccc4)c3=O)s2)cc1 [6b, N-(1,5-Dimethyl-3-oxo-2-phenyl-2,3-dihydro-1H-pyrazol-4-yl)-2-((5–(3-(p-tolyl)ureido)-1,3,4-thiadiazol-2-yl)thio)acetamide]	104 ± 2.25	0.79	-0.2866	2.016 Log (nM)	82.3 ± 2.28	-0.3398	1.915 Log (nM)	253 to 255
Cc1ccc(-c2nc(SCC(=O)Nc3c(C)n(C)n(-c4ccccc4)c3=O)[nH]c(=O)c2C#N)cc1 [8a, 2-((5-Cyano-6-oxo-4-(p-tolyl)-1,6-dihydropyrimidin-2-yl)thio)-N-(1,5-dimethyl-3-oxo-2-phenyl-2,3-dihydro-1H-pyrazol-4-yl)acetamide]	88.6 ± 2.19	1.57	-0.3794	1.948 Log (nM)	139 ± 2.31	-0.3685	2.142 Log (nM)	> 300
Cc1ccc(-c2nnc(SCC(=O)Nc3c(C)n(C)n(-c4ccccc4)c3=O)o2)cc1 [4a, N-(1,5-Dimethyl-3-oxo-2-phenyl-2,3-dihydro-1H-pyrazol-4-yl)-2-((5-(p-tolyl)-1,3,4-oxadiazol-2-yl)thio)acetamide]	86.9 ± 2.19	2.05	-0.3184	1.939 Log (nM)	178 ± 2.15	-0.3744	2.252 Log (nM)	234 to 236
